According to US8754209B2, “Indazole derivatives or pharmaceutically acceptable salts thereof as protein kinase inhibitors for proliferative diseases treatment, and a pharmaceutical composition containing the same as an active ingredient” (Korea Institute of Science and Technology, priority 2009, dated 2014):

Tests used:
B-Raf-V600E = B-Raf-V600E (Homo sapiens, UniProt P15056, V600E); assay: B-Raf kinase enzyme assay (MEK1/Erk2 cascade, MBP phosphorylation, 32P); assay type: biochemical; details: read-out: b-raf-V600Ekinase inhibitory activity (IC50)
Chain of B-Raf-V600E (P15056 whole entry V600E): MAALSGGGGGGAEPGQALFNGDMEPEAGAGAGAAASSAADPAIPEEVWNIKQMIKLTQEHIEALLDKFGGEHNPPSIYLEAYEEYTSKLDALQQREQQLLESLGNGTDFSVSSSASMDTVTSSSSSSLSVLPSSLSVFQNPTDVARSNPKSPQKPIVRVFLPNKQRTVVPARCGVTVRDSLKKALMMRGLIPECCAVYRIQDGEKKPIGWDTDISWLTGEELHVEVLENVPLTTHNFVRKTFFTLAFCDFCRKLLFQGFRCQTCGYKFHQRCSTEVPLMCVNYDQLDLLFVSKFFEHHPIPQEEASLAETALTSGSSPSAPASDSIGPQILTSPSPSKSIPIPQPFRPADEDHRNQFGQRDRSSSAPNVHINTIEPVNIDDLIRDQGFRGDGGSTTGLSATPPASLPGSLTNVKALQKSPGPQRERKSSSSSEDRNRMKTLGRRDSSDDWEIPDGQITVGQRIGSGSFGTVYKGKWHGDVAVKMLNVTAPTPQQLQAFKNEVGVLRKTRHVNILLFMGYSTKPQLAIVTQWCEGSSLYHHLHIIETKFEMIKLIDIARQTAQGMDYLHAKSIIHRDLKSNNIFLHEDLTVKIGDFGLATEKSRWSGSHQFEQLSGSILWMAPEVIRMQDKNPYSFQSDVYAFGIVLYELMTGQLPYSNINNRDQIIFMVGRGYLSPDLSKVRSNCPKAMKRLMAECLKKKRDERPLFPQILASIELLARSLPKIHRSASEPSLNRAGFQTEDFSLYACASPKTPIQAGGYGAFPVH
Description: <1-1> Activation of MAP Kinase 2/Erk2 by B-raf
10 μl magnesium chloride/ATP solution (500 uM ATP, 75 mM magnesium chloride) was seeded in eppendorf tube. 2.5 μl B-Raf-V600E was seed (final conc. 1 ng) in eppendorf tube and treated with 1.6 μl deactivated MEK1 (final conc. 0.4 μg). The mixture was treated with 4 μl deactivated MAP kinase 2/Erk2 (final conc. 1.0 ug). And the mixture was treated with 1 μl example solution (10 mM) dissolved in dimethyl sulfoxide which was orderly diluted. Then, assay dilution buffer I (ADBI I) was added thereto (final vol. 38 μl) to make the final volume of 38 μl, and made it reacted at 30° C. for 30 min. 5 μl of resulting solution was used for the following experiment.
<1-2> Phosphorylation of Myelin basic protein (MBP)
5 μl of the above resulting solution was treated with 10 μl assay dilution buffer, and then treated with 10 μl Myelin basic protein (MBP, 2 mg/Ml). The mixture solution was treated with 10 μl of diluted (1/10) [γ^32P] ATP (100 uCi/vial) which is diluted at 30° C. for 10 min. 25 μl of the mixture solution was spotted onto a P81 paper, and the paper was washed four times with 0.75% phosphoric acid for 10 min and once with acetone for 5 min in scintillation vial. After 5 Ml of scintillation cocktail solution was added in the scintillation vial, signals were analyzed by scintillation counter.

SAPK2a (h) = SAPK2a (h) (Homo sapiens, UniProt Q16539); assay: Kinase activity profiling service (Millipore); assay type: biochemical; details: read-out: Kinase inhibitory activity (IC50, uM) SAPK2a (h)
Chain of SAPK2a (h) (Q16539 whole entry): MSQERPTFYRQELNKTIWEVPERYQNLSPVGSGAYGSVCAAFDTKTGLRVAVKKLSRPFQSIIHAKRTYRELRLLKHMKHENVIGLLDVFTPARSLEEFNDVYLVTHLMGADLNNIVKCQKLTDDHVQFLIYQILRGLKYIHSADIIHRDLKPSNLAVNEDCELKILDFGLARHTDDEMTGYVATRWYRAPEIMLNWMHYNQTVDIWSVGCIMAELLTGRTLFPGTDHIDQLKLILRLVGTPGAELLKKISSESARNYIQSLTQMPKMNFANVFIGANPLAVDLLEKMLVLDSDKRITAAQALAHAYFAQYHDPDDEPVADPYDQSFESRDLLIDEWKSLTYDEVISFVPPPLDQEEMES
Text: (§1) Also, as mentioned above we tested kinase activities of the representative compounds of the examples using Kinase activity profiling service (Millipore UK Ltd Gemini Crescent, Dundee Technology Park, Dundee DD2 1SW, UK).

KDR (h) = KDR (h) (Homo sapiens, UniProt P35968); assay: Kinase activity profiling service (Millipore); assay type: biochemical; details: read-out: Kinase inhibitory activity (IC50, uM) KDR (h)
Text: as §1

Tie2 (h) = Tie2 (h) (Homo sapiens, UniProt Q02763); assay: Kinase activity profiling service (Millipore); assay type: biochemical; details: read-out: Kinase inhibitory activity (IC50, uM) Tie2 (h)
Chain of Tie2 (h) (Q02763 23-1124): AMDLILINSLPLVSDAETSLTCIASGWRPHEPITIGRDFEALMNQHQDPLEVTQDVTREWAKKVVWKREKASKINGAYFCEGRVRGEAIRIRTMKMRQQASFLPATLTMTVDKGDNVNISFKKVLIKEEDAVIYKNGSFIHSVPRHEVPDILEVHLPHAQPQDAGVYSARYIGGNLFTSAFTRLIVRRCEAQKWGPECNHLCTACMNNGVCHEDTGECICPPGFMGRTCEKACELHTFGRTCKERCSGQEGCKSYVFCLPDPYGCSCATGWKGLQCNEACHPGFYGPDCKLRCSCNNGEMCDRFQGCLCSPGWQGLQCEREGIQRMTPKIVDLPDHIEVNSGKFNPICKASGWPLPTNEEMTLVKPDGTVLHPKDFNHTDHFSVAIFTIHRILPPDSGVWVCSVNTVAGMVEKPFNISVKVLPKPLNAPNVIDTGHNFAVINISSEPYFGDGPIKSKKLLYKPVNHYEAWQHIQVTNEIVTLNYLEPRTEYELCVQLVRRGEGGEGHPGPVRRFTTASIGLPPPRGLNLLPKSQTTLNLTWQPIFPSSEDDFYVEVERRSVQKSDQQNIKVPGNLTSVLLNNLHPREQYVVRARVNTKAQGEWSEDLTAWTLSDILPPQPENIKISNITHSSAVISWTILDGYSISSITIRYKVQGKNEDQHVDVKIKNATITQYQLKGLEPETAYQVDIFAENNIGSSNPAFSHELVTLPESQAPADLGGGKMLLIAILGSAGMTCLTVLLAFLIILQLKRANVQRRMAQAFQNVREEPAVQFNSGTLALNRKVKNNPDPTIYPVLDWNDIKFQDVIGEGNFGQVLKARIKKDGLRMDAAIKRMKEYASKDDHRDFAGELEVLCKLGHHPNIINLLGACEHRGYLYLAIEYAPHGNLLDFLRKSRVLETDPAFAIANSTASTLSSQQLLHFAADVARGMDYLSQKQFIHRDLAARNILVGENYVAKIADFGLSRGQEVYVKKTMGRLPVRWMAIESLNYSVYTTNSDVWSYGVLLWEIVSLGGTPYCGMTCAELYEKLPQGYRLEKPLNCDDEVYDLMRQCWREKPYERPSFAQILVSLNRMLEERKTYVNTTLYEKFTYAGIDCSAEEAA
Text: as §1

Fms (h) = Fms (h) (Homo sapiens, UniProt P07333); assay: Kinase activity profiling service (Millipore); assay type: biochemical; details: read-out: Kinase inhibitory activity (IC50, uM) Fms (h)
Chain of Fms (h) (P07333 20-972): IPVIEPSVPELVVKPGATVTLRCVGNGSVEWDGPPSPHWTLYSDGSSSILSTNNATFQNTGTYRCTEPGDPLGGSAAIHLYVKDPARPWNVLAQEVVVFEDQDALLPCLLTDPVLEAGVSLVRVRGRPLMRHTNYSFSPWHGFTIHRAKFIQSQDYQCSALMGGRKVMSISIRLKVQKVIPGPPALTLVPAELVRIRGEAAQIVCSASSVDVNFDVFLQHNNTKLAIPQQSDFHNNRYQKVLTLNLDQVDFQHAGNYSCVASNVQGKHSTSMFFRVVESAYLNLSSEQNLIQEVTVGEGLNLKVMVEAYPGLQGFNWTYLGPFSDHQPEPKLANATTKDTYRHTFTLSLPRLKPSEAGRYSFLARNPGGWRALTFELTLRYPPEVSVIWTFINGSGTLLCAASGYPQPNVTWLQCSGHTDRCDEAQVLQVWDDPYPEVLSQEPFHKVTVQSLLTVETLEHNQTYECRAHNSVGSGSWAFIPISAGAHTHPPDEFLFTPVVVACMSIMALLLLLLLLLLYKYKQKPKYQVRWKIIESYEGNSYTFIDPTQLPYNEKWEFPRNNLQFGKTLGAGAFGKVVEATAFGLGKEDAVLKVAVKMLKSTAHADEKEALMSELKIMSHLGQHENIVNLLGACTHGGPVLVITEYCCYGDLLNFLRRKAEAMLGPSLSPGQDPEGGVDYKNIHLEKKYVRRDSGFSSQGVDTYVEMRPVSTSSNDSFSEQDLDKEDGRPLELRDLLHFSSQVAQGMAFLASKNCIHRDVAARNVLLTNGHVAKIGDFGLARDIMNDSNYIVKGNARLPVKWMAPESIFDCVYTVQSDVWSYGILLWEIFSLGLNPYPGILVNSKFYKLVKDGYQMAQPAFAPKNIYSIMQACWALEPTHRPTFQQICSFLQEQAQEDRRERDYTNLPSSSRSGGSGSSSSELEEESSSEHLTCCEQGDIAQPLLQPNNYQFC
Text: as §1

Ret (h) = Ret (h) (Homo sapiens, UniProt P07949); assay: Kinase activity profiling service (Millipore); assay type: biochemical; details: read-out: Kinase inhibitory activity (IC50, uM) Ret (h)
Chain of Ret (h) (P07949 29-1114): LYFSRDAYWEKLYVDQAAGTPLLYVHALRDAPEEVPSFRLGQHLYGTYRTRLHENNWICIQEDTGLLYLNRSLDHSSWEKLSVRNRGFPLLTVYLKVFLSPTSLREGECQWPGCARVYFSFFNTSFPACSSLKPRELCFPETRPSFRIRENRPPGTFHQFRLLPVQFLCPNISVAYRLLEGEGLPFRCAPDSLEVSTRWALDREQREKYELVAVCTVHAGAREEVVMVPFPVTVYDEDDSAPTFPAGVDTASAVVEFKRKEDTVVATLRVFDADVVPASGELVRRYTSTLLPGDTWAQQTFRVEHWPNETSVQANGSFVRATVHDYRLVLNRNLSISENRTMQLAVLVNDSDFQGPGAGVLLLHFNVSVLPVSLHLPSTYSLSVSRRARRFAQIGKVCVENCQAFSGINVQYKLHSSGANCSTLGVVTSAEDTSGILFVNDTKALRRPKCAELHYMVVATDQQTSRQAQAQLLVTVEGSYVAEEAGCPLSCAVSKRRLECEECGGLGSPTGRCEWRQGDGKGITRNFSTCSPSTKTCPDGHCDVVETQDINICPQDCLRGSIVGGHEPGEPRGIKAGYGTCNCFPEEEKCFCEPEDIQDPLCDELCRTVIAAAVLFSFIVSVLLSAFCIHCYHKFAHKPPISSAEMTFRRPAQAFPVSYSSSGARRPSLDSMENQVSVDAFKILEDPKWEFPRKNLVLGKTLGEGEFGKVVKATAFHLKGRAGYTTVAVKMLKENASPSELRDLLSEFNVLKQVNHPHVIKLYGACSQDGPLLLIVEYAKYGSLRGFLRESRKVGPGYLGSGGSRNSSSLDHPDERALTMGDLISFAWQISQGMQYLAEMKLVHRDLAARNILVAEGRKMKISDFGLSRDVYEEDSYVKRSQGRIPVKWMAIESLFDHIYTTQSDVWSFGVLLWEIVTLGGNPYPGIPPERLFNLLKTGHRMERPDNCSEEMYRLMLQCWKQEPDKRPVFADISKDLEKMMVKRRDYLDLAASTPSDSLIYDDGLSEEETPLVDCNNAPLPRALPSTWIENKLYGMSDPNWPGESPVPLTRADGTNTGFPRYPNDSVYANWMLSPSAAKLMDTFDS
Text: as §1

c-RAF (h) = c-RAF (h) (Homo sapiens, UniProt P04049); assay: Kinase activity profiling service (Millipore); assay type: biochemical; details: read-out: Kinase inhibitory activity (IC50, uM) c-RAF (h)
Chain of c-RAF (h) (P04049 whole entry): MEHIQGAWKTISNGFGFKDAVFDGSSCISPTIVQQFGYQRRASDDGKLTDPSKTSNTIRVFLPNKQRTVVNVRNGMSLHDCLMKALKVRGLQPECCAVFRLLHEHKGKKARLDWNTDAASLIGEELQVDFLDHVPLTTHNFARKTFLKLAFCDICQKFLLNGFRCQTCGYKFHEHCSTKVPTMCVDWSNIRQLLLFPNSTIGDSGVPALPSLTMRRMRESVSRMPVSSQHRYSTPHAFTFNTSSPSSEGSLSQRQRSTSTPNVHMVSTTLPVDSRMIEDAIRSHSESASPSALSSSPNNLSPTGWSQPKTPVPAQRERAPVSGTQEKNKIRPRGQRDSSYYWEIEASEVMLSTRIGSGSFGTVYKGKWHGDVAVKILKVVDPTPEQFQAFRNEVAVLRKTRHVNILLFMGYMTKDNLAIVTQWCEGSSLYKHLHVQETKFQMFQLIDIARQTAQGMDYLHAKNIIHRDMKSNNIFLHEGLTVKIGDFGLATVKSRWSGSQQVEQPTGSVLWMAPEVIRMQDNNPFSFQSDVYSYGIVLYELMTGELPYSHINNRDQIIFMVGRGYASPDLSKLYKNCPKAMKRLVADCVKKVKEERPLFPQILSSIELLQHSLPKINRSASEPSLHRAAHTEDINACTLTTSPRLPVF
Text: as §1

A375P cells = assay: Anti-proliferative activity on A375P cell line (MTT assay); assay type: cell-based; details: A375P human melanoma cell line
Description: A375P cells were purchased from American Type Culture Collection (ATCC, Rockville, Md., US) and maintained in DMEM medium (Welgene, Daegu, Korea) supplemented with 10% FBS (Welgene) and 1% penicillin/streptomycin (Welgene) in a humidified atmosphere with 5% CO2 at 37° C. The A375P cells were taken from culture substrate with 0.05% trypsin-0.02% EDTA and plated at a density of 5×10^3 cells/well in 96 well plates and then incubated at 37° C. for 24 h in a humidified atmosphere with 5% CO2 prior to treatment of various concentration (three fold serial dilution, 12 points) of test compounds. The A357P cell viability was assessed by the conventional 3-(4,5-dimethylthiazol-2-yl)-2,5-diphenyltetrazolium bromide (MTT) reduction assay. MTT assays were carried out with CellTiter 96 (Promega) according to the manufacturer's instructions.
After 1 day, 0.5 μl the representative compounds of the examples were added thereto. The representative compounds of the examples were prepared by three fold serial dilution of 10 mM stock solution in DMSO, 12 point (final conc. DMSO 0.5%). Then, 15 μl dye was added in each well. After 2 h, 100 μl stop solution was added each well. After 24 h, absorbance was measured. The absorbance at 590 nm was recorded using EnVision2103 (PerkinElmer; Boston, Mass., US). The IC50 value was calculated using GraphPad Prism 4.0 software.

## Cc1ccc(NC(=O)Nc2ccc(Cl)c(C(F)(F)F)c2)cc1-c1ccc2c(C(=O)NCCN3CCOCC3)n[nH]c2c1 [Example 64, 6-(5-(3-(4-chloro-3-(trifluoromethyl)phenyl)ureido)-2-methylphenyl)-N-(2-morpholinoethyl)-1H-indazole-3-carboxamide]
B-Raf-V600E
  IC50: < 10 µM
SAPK2a (h)
  IC50: 167 µM
KDR (h)
  IC50: 332 µM
Tie2 (h)
  IC50: 1510 µM
Fms (h)
  IC50: 141 µM
Ret (h)
  IC50: 603 µM
c-RAF (h)
  IC50: 137 µM
A375P cells
  GI50: < 10 µM
